The data set concerns hypertriglyceridemic patients with cardiovascular disease or at high risk for cardiovascular disease. To be noted: human, in vivo. From the text: Compliance Control: Unless clear contraindications arise, patients were strongly encouraged to adhere to their treatment regimen with the study drug for the duration of the trial. Any interruptions of therapy were, if possible, brief (e.g., <4 weeks) and only for clinically indicated reasons, such as adverse events. Discontinuations were discouraged as much as possible. Any discontinuations were based on compelling clinical reasons. For every patient, an assessment of compliance to the study drug treatment regimen was obtained at each scheduled visit. Study medication was dispensed in amounts exceeding the amount required for the study. Patients were instructed to return all unused study medication at the next visit. Compliance to the study drug regimen was evaluated at each visit by counting unused capsules. Discrepancies were evaluated and discussed with each patient to assess compliance. […] At the end of the study, the final study medication compliance was determined by unused capsule count. […]
Occurrence of an outcome event according to the judgment of the investigator was not considered a valid reason for study drug discontinuation. Patients whose treatment with study medication was discontinued early, and had not withdrawn consent, stayed in the study and were monitored until the end of the study. […]

For the molecule `CC/C=C\C/C=C\C/C=C\C/C=C\C/C=C\CCCC(=O)OCC` [AMR101, eicosapentaenoic acid ethyl ester], the “Early study drug discontinuation: adverse event” value amounted to 9.2%.
